In publication PMC6270026, “Antibacterial and Herbicidal Activity of Ring-Substituted 2-Hydroxynaphthalene-1-carboxanilides” (Molecules, 2013):
≈ marks a conversion by molar mass, not a printed value.

Assays:
[1] = system: methicillin-resistant Staphylococcus aureus SA 630; assay: In vitro antibacterial susceptibility testing (broth dilution MIC); type: cell-based; details: MRSA, clinical isolate SA 630, 24 h, 37 °C
Protocol: (§1) The synthesized compounds were evaluated for in vitro antibacterial activity against representatives of multidrug-resistant bacteria, clinical isolates of methicillin-resistant Staphylococcus aureus (MRSA) 63718, SA 630 and SA 3202 that were obtained from the National Institute of Public Health, Prague, Czech Republic. Staphylococcus aureus ATCC 29213 was used as a reference and quality control strain. Ampicillin (Sigma-Aldrich) was used as the standard. Prior to testing, each strain was passaged onto nutrient agar (Oxoid, Hampshire, UK) with 5% of bovine blood, and bacterial inocula were prepared by suspending a small portion of bacterial colony in sterile phosphate buffered saline (pH 7.2–7.3). The cell density was adjusted to 0.5 McFarland units using a densitometer (Densi-La-Meter, LIAP, Riga, Latvia). The final inoculum was made by 1:20 dilution of the suspension with the Mueller-Hinton broth (MH broth). […] The final concentrations of the evaluated compounds ranging from 256 μg/mL to 0.008 μg/mL. The broth dilution micro-method modified according to NCCLS guidelines in MH broth was used to determine the minimum inhibitory concentration (MIC). Drug-free controls, sterility controls and controls consisted of MH broth and DMSO alone were included. The determination of results was performed visually after 24 h of static incubation in the darkness at 37 °C in an aerobic atmosphere. The MICs were defined as the lowest concentration of the compound at which no visible bacterial growth was observed.

[2] = system: methicillin-resistant Staphylococcus aureus SA 3202; assay: as above; type: cell-based; details: MRSA, clinical isolate SA 3202, 24 h, 37 °C, read-out: MIC MRSA 3202
Protocol: as §1

[3] = system: methicillin-resistant Staphylococcus aureus (MRSA) 63718; assay: as above; type: cell-based; details: clinical isolate MRSA 63718, 24 h, 37 °C
Protocol: as §1

[4] = system: Staphylococcus aureus ATCC 29213; assay: as above; type: cell-based; details: ATCC29213; Staphylococcus aureus ATCC 29213, 24 h, 37 °C
Protocol: as §1

[5] = Lipophilicity determination by RP-HPLC (capacity factor log k); type: physicochemical; details: isocratic, MeOH 60%/H2O 40%, C18
Protocol: A HPLC system Agilent 1200 equipped with DAD detector (Agilent, Santa Clara, CA, USA) was used. A chromatographic column Symmetry® C18 5 μm, 4.6 × 250 mm, Part No. WAT054275, (Waters Corp., Milford, MA, USA) was used. The HPLC separation process was monitored and evaluated by EZChrom Elite software ver. 3.3.2 (Agilent). Isocratic elution by a mixture of MeOH p.a. (60%) and H2O-HPLC Mili-Q grade (40%) as a mobile phase was used. The total flow of the column was 1.0 mL/min, injection 20 μL, column temperature 40 °C and sample temperature 10 °C. The detection wavelength 210 nm was chosen. The KI methanolic solution was used for the dead time (tD) determination. Retention times (tR) were measured in minutes. The capacity factors k were calculated according to formula k = (tR − tD)/tD, where tR is the retention time of the solute, whereas tD denotes the dead time obtained using an unretained analyte. Log k, calculated from the capacity factor k, is used as the lipophilicity index converted to log P scale.

M. smegmatis ATCC 700084 = assay: In vitro antimycobacterial evaluation (broth dilution MIC); type: cell-based, Mycobacterium smegmatis; details: Mycolicibacterium smegmatis, ATCC700084, 72 h; M. smegmatis ATCC 700084, 3 days, 37 °C
[6] = system: photosynthetic electron transport (PET) in spinach chloroplasts; assay: Inhibition of photosynthetic electron transport (PET) in spinach chloroplasts; type: biochemical, Spinacia oleracea L.; details: DCPIP photoreduction
Protocol: Chloroplasts were prepared from spinach (Spinacia oleracea L.) according to Masarovicova and Kralova. The inhibition of photosynthetic electron transport (PET) in spinach chloroplasts was determined spectrophotometrically (Genesys 6, Thermo Electron Scientific Instruments, Madison, WI, USA), using an artificial electron acceptor 2,6-dichlorophenol-indophenol (DCPIP) according to Kralova et al., and the rate of photosynthetic electron transport was monitored as a photoreduction of DCPIP. The measurements were carried out in phosphate buffer (0.02 mol/L, pH 7.2) containing sucrose (0.4 mol/L), MgCl2 (0.005 mol/L) and NaCl (0.015 mol/L). The chlorophyll content was 30 mg/L in these experiments and the samples were irradiated (~100 W/m^2 with 10 cm distance) with a halogen lamp (250 W) using a 4 cm water filter to prevent warming of the samples (suspension temperature 22 °C). The studied compounds were dissolved in DMSO due to their limited water solubility. […] The inhibitory efficiency of the studied compounds was expressed by IC50 values, i.e., by molar concentration of the compounds causing 50% decrease in the oxygen evolution rate relative to the untreated control.

[7] = system: Mycobacterium avium subsp. paratuberculosis (CIT03); assay: In vitro antimycobacterial evaluation (alamarBlue MIC); type: cell-based; details: 264 h, M. avium paratuberculosis CIT03, 11 days, 37 °C
Protocol: A well characterised clinical isolate of Mycobacterium avium subsp. paratuberculosis (CIT03) was grown in Middlebrook broth (MB), supplemented with Oleic-Albumin-Dextrose-Catalase supplement (OADC, Becton, Dickinson & Comp., Franklin Lakes, NJ, USA) and mycobactin J (2 µg/mL). Identification of this isolate was performed using biochemical and molecular protocols. At log phase growth, a culture sample (10 mL) was centrifuged at 15,000 rpm/20 min using a bench top centrifuge (Model CR 4-12, Jouan Inc., Winchester, VA, USA). Following removal of the supernatant, the pellet was washed in fresh Middlebrook 7H9GC broth and re-suspended in fresh supplemented MB (10 mL). The turbidity was adjusted to match McFarland standard No. 1 (3 × 10^8 cfu) with MB broth. A further 1:20 dilution of the culture was then performed in MB broth. The antimicrobial susceptibility of the mycobacterial species was investigated in a 96-well plate format. In these experiments, sterile deionised water (300 µL) was added to all outer-perimeter wells of the plates to minimize evaporation of the medium in the test wells during incubation. Each evaluated compound (100 µL) was incubated with each of the mycobacterial species (100 µL). Dilutions of each compound were prepared in duplicate. For all synthesized compounds, final concentrations ranged from 1,000 µg/mL to 8 µg/mL. All compounds were prepared in DMSO and subsequent dilutions were made in supplemented MB. The plates were sealed with parafilm and incubated at 37 °C, for 11 days in the case of M. avium paratuberculosis. Following incubation, a 10% addition of alamarBlue (AbD Serotec, Kidlington, UK) was mixed into each well and readings at 570 nm and 600 nm were taken, initially for background subtraction and subsequently after 24 h re-incubation. The background subtraction is necessary for strongly coloured compounds, where the colour may interfere with the interpretation of any colour change. For non-interfering compounds, a blue colour in the well was interpreted as an absence of growth and a pink colour was scored as growth. The minimum inhibitory concentrations (MICs) were initially defined as the lowest concentration which prevented a visual colour change from blue to pink.
The MICs were defined as the lowest concentration of the compound at which no visible bacterial growth was observed. The MIC value is routinely and widely used in bacterial assays and is a standard detection limit according to the Clinical and Laboratory Standards Institute (CLSI). Isoniazid (Sigma-Aldrich) was used as reference antimycobacterial drug.

[8] = system: Mycobacterium marinum CAMP 5644; assay: In vitro antimycobacterial evaluation (broth dilution MIC); type: cell-based; details: Mycobacterium marinum, CAMP5644, 504 h, M. marinum CAMP 5644, 21 days, 28 °C
M. kansasii DSM 44162 = assay: as above; type: cell-based; details: Mycobacterium kansasii, DSM44162, 168 h; M. kansasii DSM 44162, 7 days, 37 °C

Row | Compound | MIC [1] | MIC [2] | MIC [3] | MIC [4] | log k [5] | MIC (M. smegmatis ATCC 700084) | IC50 [6] | MIC [7] | MIC [8] | MIC (M. kansasii DSM 44162)
1 | CC1(C)S[C@@H]2[C@H](NC(=O)[C@H](N)c3ccccc3)C(=O)N2[C@H]1C(=O)O [APC, ampicillin, reference compound] | > 45.8 µM | > 45.8 µM | > 45.8 µM | 5.7 µM (≈ 1.99 µg/mL) | 0.4337 | – | – | – | – | –
2 | COc1ccccc1NC(=O)c1c(O)ccc2ccccc12 [Compound 2a, 2-Hydroxy-N-(2-methoxyphenyl)naphthalene-1-carboxamide] | > 873 µM | > 873 µM | > 873 µM | > 873 µM | 0.5121 | > 873 µM | 477 µM | 852 µM (≈ 250 µg/mL) | > 873 µM | > 873 µM
3 | COc1cccc(NC(=O)c2c(O)ccc3ccccc23)c1 [Compound 2b, 2-Hydroxy-N-(3-methoxyphenyl)naphthalene-1-carboxamide] | – | 218 µM (≈ 63.9 µg/mL) | – | – | 0.6582 | 218 µM (≈ 63.9 µg/mL) | 681 µM | 426 µM (≈ 125 µg/mL) | 218 µM (≈ 63.9 µg/mL) | 109 µM (≈ 32 µg/mL)
4 | COc1ccc(NC(=O)c2c(O)ccc3ccccc23)cc1 [Compound 2c, 2-Hydroxy-N-(4-methoxyphenyl)naphthalene-1-carboxamide] | – | – | – | – | 0.6342 | – | – | 852 µM (≈ 250 µg/mL) | 109 µM (≈ 32 µg/mL) | 218 µM (≈ 63.9 µg/mL)
5 | Cc1ccccc1NC(=O)c1c(O)ccc2ccccc12 [Compound 3a, 2-Hydroxy-N-(2-methylphenyl)naphthalene-1-carboxamide] | – | – | – | – | 0.7962 | – | 586 µM | 451 µM (≈ 125 µg/mL) | 231 µM (≈ 64.1 µg/mL) | 115 µM (≈ 31.9 µg/mL)
6 | Cc1cccc(NC(=O)c2c(O)ccc3ccccc23)c1 [Compound 3b, 2-Hydroxy-N-(3-methylphenyl)naphthalene-1-carboxamide] | 231 µM (≈ 64.1 µg/mL) | 231 µM (≈ 64.1 µg/mL) | – | 231 µM (≈ 64.1 µg/mL) | 0.4593 | 231 µM (≈ 64.1 µg/mL) | 372 µM | 451 µM (≈ 125 µg/mL) | 231 µM (≈ 64.1 µg/mL) | 115 µM (≈ 31.9 µg/mL)
7 | Cc1ccc(NC(=O)c2c(O)ccc3ccccc23)cc1 [Compound 3c, 2-Hydroxy-N-(4-methylphenyl)naphthalene-1-carboxamide] | – | – | – | 231 µM (≈ 64.1 µg/mL) | 0.3751 | – | 874 µM | 451 µM (≈ 125 µg/mL) | 115 µM (≈ 31.9 µg/mL) | 115 µM (≈ 31.9 µg/mL)
